Source: patent EP0086757A1, “Derivatives of alpha or beta-mercaptopropionylamidoacetic acids, processes for their preparation and the therapeutic compositions which include them as active principles” (Farmatis S.r.l., priority 1982, dated 1983)
Where two headings read alike, the source gives them in different places.

Tests used:
[1] = system: glycopeptides of the bronchial mucus; test: glycopeptide analysis of bronchial mucus of orally treated patients with bronchial hypersecretion; assay type: in vivo; conditions: comparative test, 70 mg/kg/die
[2] = system: bronchial hypersecretion induced in rats with SO2; test: bronchial hypersecretion induced with SO2 inhalation; assay type: in vivo; conditions: oral 0.5 g/kg/die for two weeks; 300 ppm SO2 two hours per day, total 90 hours; untreated 80%
Protocol: The inhalation of 300 ppm of […] for two hours per day, for a total period of 90 hours, produced bronchial obstruction in only 12% of the animals compared to the 80% produced in those not treated. […] Finally, with the rats which underwent CCl4 nebulization treatment for 10 days (5 applications, 2.minutes per day), the contemporaneous oral administration of the esters of this invention, at doses of 0.5 g/kg/die, prevented intrabronchial desquamation and reactive hyperplasia of the mucosa to the extent of 60%.

[3] = system: rats which underwent CCl4 nebulization treatment; test: CCl4 nebulization, bronchial mucosa protection; assay type: in vivo; conditions: oral 0.5 g/kg/die; CCl4 nebulization 10 days, 5 applications, 2 minutes per day
Text: Finally, with the rats which underwent CCl4 nebulization treatment for 10 days (5 applications, 2.minutes per day), the contemporaneous oral administration of the esters of this invention, at doses of 0.5 g/kg/die, prevented intrabronchial desquamation and reactive hyperplasia of the mucosa to the extent of 60%.

[4] = system: Carragenin-induce edema in hind paw of the rat; test: carragenin-induced hind paw edema (anti-inflammatory activity); assay type: in vivo, rats; conditions: oral by esophagal probe one hour before carragenin; paw volume three hours later
Protocol: The anti-inflammatory activity was investigated on rats by administering the new products,orally,using an esophagal probe. One hour after administration, a subcutaneous injection of 0.05 ml of 1% carragenin was made in the right hind paw and three hours later a plethysmometric evaluation was made of the difference in volume between the two hind paws (WINTER C.A., RISLEY E.A., NUSS G.W., Carragenin-induce edema in hind paw of the rat as an assay for anti-inflammatory drugs. Proc. Soc. Exp. Biol. Med., 111, 544 - 1962).

[5] = system: aerosol histaminic shock; test: aerosol histaminic shock (antibronchospastic activity); assay type: in vivo
Protocol: The antibronchospastic activity of the new compounds, in face, was evaluated by pretreating test animals with 2 g/kg of the new compounds, administered by way of an esophagal probe, and then submitting them to aerosol histaminic shock (histamine phosphate 1:80 at about 140 mm Eg). The time was noted between when the aerosol was given and the convulsions began. After two hours of pretreatment, times amounting to 70% of the approximately 120 seconds of the control group were obtained. […] The new compounds, therefore, provide intense and persistent protection against bronchspasm induced experimentally with histamine, in strict correlation with the anti-inflammatory activity reported previously.

[6] = acute toxicity (DL50); assay type: in vivo
Protocol: In fact, while S-carboxymethylcysteine has a DL50 of 5.18 g/kg, the new thiolic esters' DL50 cannot be determined, i.p., since more than 5 g/kg cannot be administered; but, orally, the DL50 is above 8 g/kg, as with the S-carboymethylcysteine. The subacute, chronic and fetal toxi city was evaluated by mixing the esters with the food.

[7] = system: Carragenin-induce edema in hind paw of the rat; conditions: comparison value for a classical antiphlogistic; cited from earlier work

Row | SMILES | average increase in sialoglycopeptides [1] [%] | diminution of glycopeptides and mucin [1] [%] | animals with bronchial obstruction (not protected) [2] [%] | prevention of intrabronchial desquamation and reactive hyperplasia of the mucosa [3] [%] | DE50 [4] | difference between the control and tested subjects in time to convulsions [5] | DL50 ([6]; i.p. (route only implied for the comparator), more than 5 g/kg cannot be administered) [g/kg] | DL50 ([6]; orally) | DE50 [7] [mg/kg]
1 | N[C@@H](CSCC(=O)O)C(=O)O [S-carboxymethylcysteine] | ≤ 75 | ≤ 45 | 25 | ≤ 40 | not determinable | no appreciable difference | 5.18 | above 8 g/kg | –
2 | CC(=O)Oc1ccccc1C(=O)O [acetylsalicylic acid] | – | – | – | – | – | – | – | – | 100
